What was measured:
[1] = Test B: Cytotoxicity Assay in MT-4 Cells; assay type: cell-based; conditions: human, uninfected MT-4 cells, CellTiter-Glo
Description: (§1) For the MT-4 antiviral assay, 50 μL of 3-fold serially diluted compound in complete RPMI medium was added to each well of a 384-well plate (10 concentrations) in quadruplicate. MT-4 cells were infected with HIV-1 (IIIb strain) at a multiplicity of infection (m.o.i.) of ˜0.005 for 1 hour at 37° C. and 20 μL of virus/cell mixture (˜2,000 cells) was added to each well of the assay plate containing 50 μL of diluted compound. A positive control (1 μM azidothymidine, AZT) and a negative control (dimethyl sulfoxide, DMSO) were included in every assay plate to define 100% and 0% protection, respectively. The final DMSO concentration in the assay was 0.5%. The plates were then incubated at 37° C. for 5 days. At the end of the incubation, 30 μL of CellTiter-Glo reagent (Promega Madison, WI) was added to each well of the assay plates. Cell lysis was carried out by incubating the assay plates at room temperature for 10 minutes followed by the quantification of chemiluminescence signal using an EnVision plate reader (Perkin Elmer, Shelton, CT). Antiviral dose response data were normalized to positive and negative controls in each plate and analyzed by curve fitting after conversion of the data to % cell death to determine the half-maximal effective concentration (EC50) value, defined as the compound concentration that caused a 50% protection from cytopathic effect (CPE)-dependent virus-induced cell death. Test B: Cytotoxicity Assay in MT-4 Cells Compound cytotoxicity and the corresponding half-maximal cytotoxicity concentration (CC50) values was determined using the same protocol as described in the antiviral assay (Test A) except that uninfected cells were used and the data were normalized to the 100% viability control (DMSO) wells on each plate.

HIV-1 (IIIb strain) = test: Test A: Antiviral Assay in the Human MT-4 T-Lymphoblastoid Cell Line; assay type: cell-based; conditions: Human immunodeficiency virus 1, MT4, 120 h; MT-4 cells infected with HIV-1 IIIb, 5 days, CellTiter-Glo, protection from virus-induced cell death
Description: Test A: Antiviral Assay in the Human MT-4 T-Lymphoblastoid Cell Line
as §1, with “death.” for “death. Test B: Cytotoxicity Assay in MT-4 Cells Compound cytotoxicity and the corresponding half-maximal cytotoxicity concentration (CC50) values was determined using the same protocol as described in the antiviral assay (Test A) except that uninfected cells were used and the data were normalized to the 100% viability control (DMSO) wells on each plate.”

| SMILES | CC50 at 5 days [1] | EC50 (HIV-1 (IIIb strain)) |
| --- | --- | --- |
| CC(C)(O)C#Cc1ccc(-c2ccc(Cl)c3c(NS(C)(=O)=O)nn(CC(F)(F)F)c23)c([C@H](Cc2cc(F)cc(F)c2)NC(=O)Cn2nc(C(F)(F)F)c3c2C(F)(F)[C@@H]2C[C@H]32)n1 [Example 1, N—((S)-1-(3-(4-chloro-3-(methylsulfonamido)-1-(2,2,2-trifluoroethyl)-1H-indazol-7-yl)-6-(3-hydroxy-3-methylbut-1-yn-1-yl)pyridin-2-yl)-2-(3,5-difluorophenyl)ethyl)-2-((3bS,4aR)-5,5-difluoro-3-(trifluoromethyl)-3b,4,4a,5-tetrahydro-1H-cyclopropa[3,4]cyclopenta[1,2-c]pyrazol-1-yl)acetamide] | 3610 nM | 0.34 nM |
| C=C(C)C#Cc1ccc(-c2ccc(Cl)c3c(NS(C)(=O)=O)nn(CC(F)(F)F)c23)c([C@H](Cc2cc(F)cc(F)c2)NC(=O)Cn2nc(C(F)(F)F)c3c2C(F)(F)[C@@H]2C[C@H]32)n1 [Example 2, N—((S)-1-(3-(4-chloro-3-(methylsulfonamido)-1-(2,2,2-trifluoroethyl)-1H-indazol-7-yl)-6-(3-methylbut-3-en-1-yn-1-yl)pyridin-2-yl)-2-(3,5-difluorophenyl)ethyl)-2-((3bS,4aR)-5,5-difluoro-3-(trifluoromethyl)-3b,4,4a,5-tetrahydro-1H-cyclopropa[3,4]cyclopenta[1,2-c]pyrazol-1-yl)acetamide] | 8740 nM | 18 nM |
| CC(C)C#Cc1ccc(-c2ccc(Cl)c3c(NS(C)(=O)=O)nn(CC(F)(F)F)c23)c([C@H](Cc2cc(F)cc(F)c2)NC(=O)Cn2nc(C(F)(F)F)c3c2C(F)(F)[C@@H]2C[C@H]32)n1 [Example 3, N—((S)-1-(3-(4-chloro-3-(methylsulfonamido)-1-(2,2,2-trifluoroethyl)-1H-indazol-7-yl)-6-(3-methylbut-1-yn-1-yl)pyridin-2-yl)-2-(3,5-difluorophenyl)ethyl)-2-((3bS,4aR)-5,5-difluoro-3-(trifluoromethyl)-3b,4,4a,5-tetrahydro-1H-cyclopropa[3,4]cyclopenta[1,2-c]pyrazol-1-yl)acetamide] | 7500 nM | 21 nM |
| CN(c1nn(CC(F)(F)F)c2c(-c3ccc(C#CC(C)(C)S(C)(=O)=O)nc3[C@H](Cc3cc(F)cc(F)c3)NC(=O)Cn3nc(C(F)(F)F)c4c3C(F)(F)[C@@H]3C[C@H]43)ccc(Cl)c12)S(C)(=O)=O [Example 4, N—((S)-1-(3-(4-chloro-3-(N-methylmethylsulfonamido)-1-(2,2,2-trifluoroethyl)-1H-indazol-7-yl)-6-(3-methyl-3-(methylsulfonyl)but-1-yn-1-yl)pyridin-2-yl)-2-(3,5-difluorophenyl)ethyl)-2-((3bS,4aR)-5,5-difluoro-3-(trifluoromethyl)-3b,4,4a,5-tetrahydro-1H-cyclopropa[3,4]cyclopenta[1,2-c]pyrazol-1-yl)acetamide] | > 50000 nM | 8.3 nM |
| CC(C)(C#Cc1ccc(-c2cccc3c(NS(C)(=O)=O)nn(CC(F)(F)F)c23)c([C@H](Cc2cc(F)cc(F)c2)NC(=O)Cn2nc(C(F)(F)F)c3c2C(F)(F)[C@@H]2C[C@H]32)n1)S(C)(=O)=O [Example 5, 2-((3bS,4aR)-5,5-difluoro-3-(trifluoromethyl)-3b,4,4a,5-tetrahydro-1H-cyclopropa[3,4]cyclopenta[1,2-c]pyrazol-1-yl)-N—((S)-2-(3,5-difluorophenyl)-1-(6-(3-methyl-3-(methylsulfonyl)but-1-yn-1-yl)-3-(3-(methylsulfonamido)-1-(2,2,2-trifluoroethyl)-1H-indazol-7-yl)pyridin-2-yl)ethyl)acetamide] | 9480 nM | 0.07 nM |
| CCN(c1nn(CC(F)(F)F)c2c(-c3ccc(C#CC(C)(C)S(C)(=O)=O)nc3[C@H](Cc3cc(F)cc(F)c3)NC(=O)Cn3nc(C(F)(F)F)c4c3C(F)(F)[C@@H]3C[C@H]43)ccc(Cl)c12)S(C)(=O)=O [Example 6, N—((S)-1-(3-(4-chloro-3-(N-ethylmethylsulfonamido)-1-(2,2,2-trifluoroethyl)-1H-indazol-7-yl)-6-(3-methyl-3-(methylsulfonyl)but-1-yn-1-yl)pyridin-2-yl)-2-(3,5-difluorophenyl)ethyl)-2-((3bS,4aR)-5,5-difluoro-3-(trifluoromethyl)-3b,4,4a,5-tetrahydro-1H-cyclopropa[3,4]cyclopenta[1,2-c]pyrazol-1-yl)acetamide] | > 50000 nM | 3.3 nM |

Reference: patent publication US20240034724A1, “THERAPEUTIC COMPOUNDS USEFUL FOR THE PROPHYLACTIC OR THERAPEUTIC TREATMENT OF AN HIV VIRUS INFECTION” (Gilead Sciences, Inc., priority 2022, published 2024)
